Laboratory results from paper PMC5218480 (PLoS ONE, 2017).

Tested on: MV-4-11 cells
Assay: Gene expression microarray analysis (Affymetrix PrimeView) and GSEA
Assay type: cell-based, human
Set-up: RFU PODN (11730768_x_at) / Fold change /veh PODN (11730768_x_at) / RFU LINC00158 (11744669_a_at) / Fold change /veh LINC00158 (11744669_a_at) / RFU DUSP10 (11751237_a_at) / Fold change /veh DUSP10 (11751237_a_at) / RFU ID3 (11757404_x_at) / Fold change /veh ID3 (11757404_x_at) / RFU PLEKHG5 (11737974_s_at) / Fold change /veh PLEKHG5 (11737974_s_at) / RFU LRRC4B (11730491_at) / Fold change /veh LRRC4B (11730491_at) / RFU GIMAP4 (11747438_a_at) / Fold change /veh GIMAP4 (11747438_a_at) / RFU KRT8 (11758183_x_at) / Fold change /veh KRT8 (11758183_x_at) / RFU CNN1 (11734310_a_at) / Fold change /veh CNN1 (11734310_a_at) / RFU VPS37D (11726825_at) / Fold change /veh VPS37D (11726825_at) / RFU C10orf10 (11716522_x_at) / Fold change /veh C10orf10 (11716522_x_at) / RFU KIR2DL2 /// KIR2DL4 /// KIR2DL5A /// KIR2DL5B /// KIR2DS1 /// KIR2DS2 /// KIR2DS3 /// KIR2DS4 /// KIR3DL3 /// KIR3DL3 /// KIR3DS1 (11738374_at) / Fold change /veh KIR2DL2 /// KIR2DL4 /// KIR2DL5A /// KIR2DL5B /// KIR2DS1 /// KIR2DS2 /// KIR2DS3 /// KIR2DS4 /// KIR3DL3 /// KIR3DL3 /// KIR3DS1 (11738374_at) / RFU C1QL1 (11718748_at) / Fold change /veh C1QL1 (11718748_at) / RFU TMPRSS4 (11747572_a_at) / Fold change /veh TMPRSS4 (11747572_a_at) / RFU HAMP (11756126_x_at) / Fold change /veh HAMP (11756126_x_at) / RFU RNFT2 (11725882_a_at) / Fold change /veh RNFT2 (11725882_a_at) / RFU NR4A2 (11747474_a_at) / Fold change /veh NR4A2 (11747474_a_at) / RFU ABCC12 (11746883_a_at) / Fold change /veh ABCC12 (11746883_a_at) / RFU TMEM136 (11760407_x_at) / Fold change /veh TMEM136 (11760407_x_at) / RFU CLDN22 /// WWC2 (11732394_at) / Fold change /veh CLDN22 /// WWC2 (11732394_at) / RFU HLA-DPB1 (11760878_x_at) / Fold change /veh HLA-DPB1 (11760878_x_at) / RFU SPINT1 (11716480_a_at) / Fold change /veh SPINT1 (11716480_a_at) / RFU GAP43 (11754022_s_at) / Fold change /veh GAP43 (11754022_s_at) / RFU A4GNT (11735810_at) / Fold change /veh A4GNT (11735810_at) / RFU PRB3 (11715151_x_at) / Fold change /veh PRB3 (11715151_x_at) / RFU TUBB4B (11761932_at) / Fold change /veh TUBB4B (11761932_at) / RFU CAPN14 (11732068_a_at) / Fold change /veh CAPN14 (11732068_a_at) / RFU TMCC2 (11721928_a_at) / Fold change /veh TMCC2 (11721928_a_at) / RFU IRGQ (11745062_a_at) / Fold change /veh IRGQ (11745062_a_at) / RFU FAM174B (11720279_a_at) / Fold change /veh FAM174B (11720279_a_at) / RFU TMPRSS4 (11748680_a_at) / Fold change /veh TMPRSS4 (11748680_a_at) / RFU FAM212B (11763350_a_at) / Fold change /veh FAM212B (11763350_a_at) / RFU PLEKHG5 (11743358_a_at) / Fold change /veh PLEKHG5 (11743358_a_at) / RFU ZSCAN30 (11745921_a_at) / Fold change /veh ZSCAN30 (11745921_a_at) / RFU CMKLR1 (11741424_a_at) / Fold change /veh CMKLR1 (11741424_a_at) / RFU LOC101060620 /// MAPK8IP1 (11723275_at) / Fold change /veh LOC101060620 /// MAPK8IP1 (11723275_at) / RFU SPTSSB (11747773_x_at) / Fold change /veh SPTSSB (11747773_x_at) / RFU PRSS12 (11739890_at) / Fold change /veh PRSS12 (11739890_at) / RFU BIN1 (11741810_x_at) / Fold change /veh BIN1 (11741810_x_at) / RFU WNT11 (11732464_a_at) / Fold change /veh WNT11 (11732464_a_at) / RFU C10orf10 (11716521_a_at) / Fold change /veh C10orf10 (11716521_a_at) / RFU C5orf56 (11738089_at) / Fold change /veh C5orf56 (11738089_at) / RFU CYB561 (11721691_x_at) / Fold change /veh CYB561 (11721691_x_at) / RFU ANKRD19P (11752326_a_at) / Fold change /veh ANKRD19P (11752326_a_at) / RFU OR2T12 /// OR2T33 /// OR2T8 (11738714_s_at) / Fold change /veh OR2T12 /// OR2T33 /// OR2T8 (11738714_s_at) / RFU VCAN (11748164_a_at) / Fold change /veh VCAN (11748164_a_at) / RFU JSRP1 (11732532_at) / Fold change /veh JSRP1 (11732532_at) / RFU KRTAP10-11 (11738290_x_at) / Fold change /veh KRTAP10-11 (11738290_x_at) / RFU MYO3A (11730013_a_at) / Fold change /veh MYO3A (11730013_a_at) / RFU EBF3 (11725865_a_at) / Fold change /veh EBF3 (11725865_a_at) / RFU CAMK2N1 (11719241_x_at) / Fold change /veh CAMK2N1 (11719241_x_at) / RFU C5orf56 (11738088_a_at) / Fold change /veh C5orf56 (11738088_a_at) / RFU OLFML3 (11715873_a_at) / Fold change /veh OLFML3 (11715873_a_at) / RFU LOC100653217 /// NTM (11731650_a_at) / Fold change /veh LOC100653217 /// NTM (11731650_a_at) / RFU MAPK11 (11762145_a_at) / Fold change /veh MAPK11 (11762145_a_at) / RFU FIZ1 (11724087_x_at) / Fold change /veh FIZ1 (11724087_x_at) / RFU OASL (11726364_x_at) / Fold change /veh OASL (11726364_x_at) / RFU SOX15 (11748057_x_at) / Fold change /veh SOX15 (11748057_x_at) / RFU CD79A (11719716_a_at) / Fold change /veh CD79A (11719716_a_at) / RFU HIST1H1D (11736915_at) / Fold change /veh HIST1H1D (11736915_at) / RFU CASKIN2 (11723855_a_at) / Fold change /veh CASKIN2 (11723855_a_at) / RFU LOC730098 (11760151_x_at) / Fold change /veh LOC730098 (11760151_x_at) / RFU OR4N2 (11742367_at) / Fold change /veh OR4N2 (11742367_at) / RFU PRRT2 (11749266_a_at) / Fold change /veh PRRT2 (11749266_a_at) / RFU SNX32 (11753110_a_at) / Fold change /veh SNX32 (11753110_a_at) / RFU CDHR5 (11726645_a_at) / Fold change /veh CDHR5 (11726645_a_at) / RFU RCAN1 (11760418_a_at) / Fold change /veh RCAN1 (11760418_a_at) / RFU FAM167A (11723789_a_at) / Fold change /veh FAM167A (11723789_a_at) / RFU FAM26E (11764081_at) / Fold change /veh FAM26E (11764081_at) / RFU ISYNA1 (11749810_s_at) / Fold change /veh ISYNA1 (11749810_s_at) / RFU ACY1 (11761880_at) / Fold change /veh ACY1 (11761880_at) / RFU 11764098_at / Fold change /veh 11764098_at / RFU SAMD14 (11745864_x_at) / Fold change /veh SAMD14 (11745864_x_at) / RFU NPB (11741838_a_at) / Fold change /veh NPB (11741838_a_at) / RFU TMPRSS6 (11731388_a_at) / Fold change /veh TMPRSS6 (11731388_a_at) / RFU KRTAP10-2 (11738614_at) / Fold change /veh KRTAP10-2 (11738614_at) / RFU ARHGAP8 /// PRR5-ARHGAP8 (11727945_x_at) / Fold change /veh ARHGAP8 /// PRR5-ARHGAP8 (11727945_x_at) / RFU KRTAP5-7 /// NADSYN1 (11734609_at) / Fold change /veh KRTAP5-7 /// NADSYN1 (11734609_at) / RFU RASL12 (11751679_a_at) / Fold change /veh RASL12 (11751679_a_at) / RFU CDKN2B (11736163_a_at) / Fold change /veh CDKN2B (11736163_a_at) / RFU PRF1 (11729649_at) / Fold change /veh PRF1 (11729649_at) / RFU, ZNF638 /// ZNF638-IT1 / Fold change vs veh, ZNF638 /// ZNF638-IT1 / RFU, PANK3 / Fold change vs veh, PANK3 / RFU, SH3YL1 / Fold change vs veh, SH3YL1 / RFU, ZEB2 / Fold change vs veh, ZEB2 / RFU, NRIP1 / Fold change vs veh, NRIP1 / RFU, PTTG1IP / Fold change vs veh, PTTG1IP / RFU, CAPN2 / Fold change vs veh, CAPN2 / RFU, MED14 / Fold change vs veh, MED14 / RFU, SNORA58 / Fold change vs veh, SNORA58 / RFU, C1orf63 / Fold change vs veh, C1orf63 / RFU, LRRFIP1 / Fold change vs veh, LRRFIP1 / RFU, NDUFAF7 / Fold change vs veh, NDUFAF7 / RFU, SLC12A2 / Fold change vs veh, SLC12A2 / RFU, IBTK / Fold change vs veh, IBTK / RFU, ESF1 / Fold change vs veh, ESF1 / Fold change vs veh, TMEM50B / RFU, TAOK1 / Fold change vs veh, TAOK1 / RFU, ACBD3 / Fold change vs veh, ACBD3 / RFU, TMA16 / Fold change vs veh, TMA16 / RFU, RWDD3 / Fold change vs veh, RWDD3 / RFU, BCAT1 / Fold change vs veh, BCAT1 / RFU, EDEM3 / Fold change vs veh, EDEM3 / RFU, TMEM33 / Fold change vs veh, TMEM33 / RFU, WDR75 / Fold change vs veh, WDR75 / RFU, AHCTF1 / Fold change vs veh, AHCTF1 / RFU, TFRC / Fold change vs veh, TFRC / RFU, ZDHHC17 / Fold change vs veh, ZDHHC17 / RFU, NOM1 / Fold change vs veh, NOM1 / RFU, ARL8B / Fold change vs veh, ARL8B / RFU, ZBTB11 / Fold change vs veh, ZBTB11 / RFU, TAMM41 / Fold change vs veh, TAMM41 / RFU, KIAA1704 /// LOC100996395 / Fold change vs veh, KIAA1704 /// LOC100996395 / RFU, ING1 / Fold change vs veh, ING1 / RFU, TRMT61B / Fold change vs veh, TRMT61B / RFU, FUBP3 / Fold change vs veh, FUBP3 / RFU, TP53 / Fold change vs veh, TP53 / RFU, TNKS2 / Fold change vs veh, TNKS2 / RFU, ZFP14 / Fold change vs veh, ZFP14 / RFU, ACTR2 / Fold change vs veh, ACTR2 / RFU, PPP3R1 / Fold change vs veh, PPP3R1 / RFU, PIK3R1 / Fold change vs veh, PIK3R1 / RFU, HNRNPA1 / Fold change vs veh, HNRNPA1 / RFU, RNF170 / Fold change vs veh, RNF170 / RFU, ZNF28 / Fold change vs veh, ZNF28 / RFU, RNGTT / Fold change vs veh, RNGTT / RFU, OGT / Fold change vs veh, OGT / RFU, BRD1 / Fold change vs veh, BRD1 / RFU, MARS / Fold change vs veh, MARS / RFU, ZNF655 / Fold change vs veh, ZNF655 / RFU, FAHD1 / Fold change vs veh, FAHD1 / RFU, BDP1 / Fold change vs veh, BDP1 / RFU, LRRCC1 / Fold change vs veh, LRRCC1 / RFU, ARID1A / Fold change vs veh, ARID1A / RFU, ZNF146 / Fold change vs veh, ZNF146 / RFU, ZNF330 / Fold change vs veh, ZNF330 / RFU, GPN3 / Fold change vs veh, GPN3 / RFU, C9orf123 / Fold change vs veh, C9orf123 / RFU, N4BP2L2 / Fold change vs veh, N4BP2L2 / RFU, ARFIP1 / Fold change vs veh, ARFIP1 / RFU, FAM179B / Fold change vs veh, FAM179B / RFU, BCL10 / Fold change vs veh, BCL10 / RFU, UHRF1BP1L / Fold change vs veh, UHRF1BP1L / RFU, BET1 / Fold change vs veh, BET1 / RFU, CNOT2 / Fold change vs veh, CNOT2 / RFU, ZNF268 / Fold change vs veh, ZNF268 / Fold change vs veh, ZNF507 / RFU, DGCR2 / Fold change vs veh, DGCR2 / RFU, WDSUB1 / Fold change vs veh, WDSUB1 / Fold change vs veh, HSP90B1 /// MIR3652 / RFU, ADSS / Fold change vs veh, ADSS / RFU, GK / Fold change vs veh, GK / RFU, ZNF148 / Fold change vs veh, ZNF148 / RFU, TAF9 / Fold change vs veh, TAF9 / RFU, SLC1A5 / Fold change vs veh, SLC1A5 / RFU, SLMO2 / Fold change vs veh, SLMO2 / RFU, ABCC4 / Fold change vs veh, ABCC4 / RFU, LOC101060439 /// RAP1B / Fold change vs veh, LOC101060439 /// RAP1B / RFU, RFX7 / Fold change vs veh, RFX7 / RFU, GTPBP10 / Fold change vs veh, GTPBP10 / RFU, CNEP1R1 / Fold change vs veh, CNEP1R1 / RFU, BIVM-ERCC5 /// ERCC5 / Fold change vs veh, BIVM-ERCC5 /// ERCC5 / RFU, ILF3 / Fold change vs veh, ILF3 / RFU 11762660_at / Fold change /veh 11762660_at / RFU VCAN (11757783_s_at) / Fold change /veh VCAN (11757783_s_at) / RFU DDX43 (11728927_at) / Fold change /veh DDX43 (11728927_at) / RFU KRT8 (11758188_x_at) / Fold change /veh KRT8 (11758188_x_at) / RFU NKD1 (11759106_at) / Fold change /veh NKD1 (11759106_at) / RFU SRD5A1 (11742802_a_at) / Fold change /veh SRD5A1 (11742802_a_at) / RFU TPSAB1 /// TPSB2 (11721975_s_at) / Fold change /veh TPSAB1 /// TPSB2 (11721975_s_at) / RFU GSTM3 (11746129_a_at) / Fold change /veh GSTM3 (11746129_a_at) / RFU IL23R (11737362_x_at) / Fold change /veh IL23R (11737362_x_at) / RFU TMEM51 (11727254_a_at) / Fold change /veh TMEM51 (11727254_a_at) / RFU PIWIL2 (11732686_x_at) / Fold change /veh PIWIL2 (11732686_x_at) / RFU ORM1 (11744905_x_at) / Fold change /veh ORM1 (11744905_x_at) / RFU CCDC152 (11743942_at) / Fold change /veh CCDC152 (11743942_at) / RFU ECM1 (11717891_a_at) / Fold change /veh ECM1 (11717891_a_at) / RFU IL23R (11748794_a_at) / Fold change /veh IL23R (11748794_a_at) / RFU TNFAIP8L3 (11732012_x_at) / Fold change /veh TNFAIP8L3 (11732012_x_at) / RFU MBOAT4 (11741988_at) / Fold change /veh MBOAT4 (11741988_at) / RFU 11764193_at / Fold change /veh 11764193_at / RFU TMEM53 (11763286_at) / Fold change /veh TMEM53 (11763286_at) / RFU MAGEB2 (11727129_at) / Fold change /veh MAGEB2 (11727129_at) / RFU TMEM200A (11744735_a_at) / Fold change /veh TMEM200A (11744735_a_at) / RFU CCDC152 (11751479_a_at) / Fold change /veh CCDC152 (11751479_a_at) / RFU FAM211A (11726209_a_at) / Fold change /veh FAM211A (11726209_a_at) / RFU RGS16 (11746705_a_at) / Fold change /veh RGS16 (11746705_a_at) / RFU VCAN (11755009_s_at) / Fold change /veh VCAN (11755009_s_at) / RFU RHOB (11743442_s_at) / Fold change /veh RHOB (11743442_s_at) / RFU RGS16 (11720943_a_at) / Fold change /veh RGS16 (11720943_a_at) / RFU RGS16 (11720944_at) / Fold change /veh RGS16 (11720944_at) / RFU, VPS4B / Fold change vs veh, VPS4B / RFU, CREB1 / Fold change vs veh, CREB1 / RFU, DNAJC13 / Fold change vs veh, DNAJC13 / RFU, GNAQ / Fold change vs veh, GNAQ / RFU, CDK5R1 / Fold change vs veh, CDK5R1 / RFU, ZRANB3 / Fold change vs veh, ZRANB3 / RFU, CUL4A / Fold change vs veh, CUL4A / RFU, CCNY / Fold change vs veh, CCNY / RFU, UFL1 / Fold change vs veh, UFL1 / RFU, COG3 / Fold change vs veh, COG3 / RFU, DIAPH2 / Fold change vs veh, DIAPH2 / RFU, SKA2 / Fold change vs veh, SKA2 / RFU, AFF3 / Fold change vs veh, AFF3 / RFU, LMF1 / Fold change vs veh, LMF1 / RFU, IPO11 / Fold change vs veh, IPO11 / RFU, DFFB / Fold change vs veh, DFFB / RFU, FOXP1 / Fold change vs veh, FOXP1 / RFU, CARD8 / Fold change vs veh, CARD8 / RFU, STRN3 / Fold change vs veh, STRN3 / RFU, ADK / Fold change vs veh, ADK / RFU, RASSF2 / Fold change vs veh, RASSF2 / RFU, WIPF1 / Fold change vs veh, WIPF1 / RFU, LARP1B / Fold change vs veh, LARP1B / RFU, RASA1 / Fold change vs veh, RASA1 / RFU, RB1 / Fold change vs veh, RB1 / RFU, PPFIA1 / Fold change vs veh, PPFIA1 / RFU, MAT2A / Fold change vs veh, MAT2A / RFU, CCT5 / Fold change vs veh, CCT5 / RFU, WDR92 / Fold change vs veh, WDR92 / RFU, CUX1 / Fold change vs veh, CUX1 / RFU, TTC7A / Fold change vs veh, TTC7A / RFU, TMEM135 / Fold change vs veh, TMEM135 / RFU, DEPTOR / Fold change vs veh, DEPTOR / RFU, CPM / Fold change vs veh, CPM / RFU, DNAJB6 / Fold change vs veh, DNAJB6 / RFU, CACNA2D3 / Fold change vs veh, CACNA2D3 / RFU, DTX4 / Fold change vs veh, DTX4 / RFU, TFCP2 / Fold change vs veh, TFCP2 / RFU, GMCL1 /// GMCL1P1 / Fold change vs veh, GMCL1 /// GMCL1P1 / RFU, AEBP2 / Fold change vs veh, AEBP2 / RFU, SNHG1 /// SNORD22 /// SNORD25 /// SNORD26 /// SNORD27 /// SNORD28 /// SNORD29 /// SNORD31 / Fold change vs veh, SNHG1 /// SNORD22 /// SNORD25 /// SNORD26 /// SNORD27 /// SNORD28 /// SNORD29 /// SNORD31 / Fold change (Aza/veh), C12orf56 (ProbeSet 11735607_a_at) / Fold change (ACY-1035/veh), C12orf56 (ProbeSet 11735607_a_at) / Fold change (Aza/veh), FGFR1OP (ProbeSet 11751329_s_at) / Fold change (ACY-1035/veh), FGFR1OP (ProbeSet 11751329_s_at) / Fold change (Aza/veh), VPS36 (ProbeSet 11739960_a_at) / Fold change (ACY-1035/veh), VPS36 (ProbeSet 11739960_a_at) / RFU SYPL1 (11715823_x_at) / Fold change /veh SYPL1 (11715823_x_at) / RFU IGFBP7 (11715501_s_at) / Fold change /veh IGFBP7 (11715501_s_at) / RFU REEP3 (11722064_at) / Fold change /veh REEP3 (11722064_at) / RFU IGLL1 (11728026_x_at) / Fold change /veh IGLL1 (11728026_x_at): dose or concentration left out as unconfirmed
Details: MV-4-11 cells, 48 hours

Nc1ccc(-c2cccs2)cc1NC(=O)c1ccc2c(c1)cc(C1CC1)n2CCN1CCOCC1 [ACY-1035]
Fold change /veh MYO3A (11730013_a_at): 1.10
